Consider four compounds from patent US9896443B2, “Perforin inhibiting benzenesulfonamide compounds, preparation and uses thereof” (Peter MacCallum Cancer Institute, priority 2012, dated 2018).

Where a name gives a salt, the structure may show the parent alone. Read-outs that look alike come from different tables or passages of the source.

For data set [1], the system named is KHYG-1 NK cell-mediated lysis of K562 cells. Kind of data set: Inhibition of KHYG-1 NK cell-mediated lysis of K562 cells (51Cr release). The class given is cell-based. The following applies: K562 target cells, Effector:Target 2:1, 4 hours at 37° C.; for inhibition at 20 µM: 4 h. A digest of the protocol:
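KHYG-1 effector cells pretreated with compound (up to 20 µM) for 20 min at RT. 51Cr-labelled K562 targets were then added at effector:target 2:1 and incubated 4 h at 37 °C. 51Cr release was gamma-counted and expressed as % specific cytotoxicity.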

For data set [2], the system named is NK and perforin-mediated bone marrow rejection. Kind of data set: In vivo inhibition of perforin-mediated bone marrow rejection. On the set-up: species or system C57Bl/6 mice. The following applies: 120 mg/kg intra-peritoneal once daily day -2 to day +1; Balb/c bone marrow transplant; blood day +1. The procedure:
In Vivo Inhibition of Perforin-Mediated Bone Marrow Rejection.
On day 0 mice received 12×106 Balb/c (CD45.2+) CFSE labelled bone marrow as well as 12×106 B6.PTP (CD45.1+) bone marrow. On day +1 blood was collected for in vivo cytotoxicity assays looking at the ratio of recipient (CD45.1+) versus donor cells (CFSE+) (FIG. 1). Results are illustrated in FIG. 2 as two experiments combined with n=6, 10, 10, 4 and 3/group. […] Statistically significant differences were calculated using two-tailed t tests between groups.

Another data set concerns the target recombinant perforin (UniProt P10820). In kind it is cell-based. Put shortly:
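Jurkat T lymphoma cells labelled with 51Cr for 1 h, washed, then exposed to recombinant perforin with compound in RPMI plus 0.1% BSA. Lysis measured as 51Cr release. IC50 from a concentration range run in triplicate.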

Where [3] appears, read: lysis of Jurkat T lymphoma cells by recombinant perforin, 0.1% BSA, 30 min pre-incubation, 4 hours at 37° C.; read-out: Jurkat IC50.

Chain of recombinant perforin (P10820 whole entry): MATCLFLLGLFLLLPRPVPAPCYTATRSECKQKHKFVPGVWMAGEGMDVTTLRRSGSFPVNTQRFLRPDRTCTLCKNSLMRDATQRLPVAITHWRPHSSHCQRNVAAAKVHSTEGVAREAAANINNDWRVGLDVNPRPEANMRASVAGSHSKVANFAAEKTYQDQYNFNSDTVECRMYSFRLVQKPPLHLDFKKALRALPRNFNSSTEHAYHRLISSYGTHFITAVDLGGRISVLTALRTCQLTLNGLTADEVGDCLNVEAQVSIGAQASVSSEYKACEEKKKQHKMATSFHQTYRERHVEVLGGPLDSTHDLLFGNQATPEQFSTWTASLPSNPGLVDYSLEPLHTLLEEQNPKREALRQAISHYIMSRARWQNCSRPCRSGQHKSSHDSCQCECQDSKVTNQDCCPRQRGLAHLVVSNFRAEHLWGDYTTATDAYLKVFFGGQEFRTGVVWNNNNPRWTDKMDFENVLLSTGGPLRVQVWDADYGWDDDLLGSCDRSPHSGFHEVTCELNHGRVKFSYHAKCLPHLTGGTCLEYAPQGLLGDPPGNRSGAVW

Regarding `CN1Cc2cc(-c3ccc(-c4cncc(NS(=O)(=O)c5ccc(F)cc5F)c4)s3)ccc2C1=O` [Compound 1.Na, 2,4-Difluoro-N-(5-(5-(2-methyl-1-oxoisoindolin-5-yl)thiophen-2-yl)pyridin-3-yl)benzenesulfonamide, sodium salt], the “Inhibition of KHYG-1 at 20 μM (%)” value in data set [1] (sodium salt) amounted to 48%. Besides, the “inhibition of NK and perforin-mediated bone marrow rejection” value in data set [2] was “able to inhibit NK and perforin-mediated bone marrow rejection”.
As a reminder, the inhibition is the relative decrease from the control value, in per cent. Low values mean a response near the control, high ones a response far below the control. One may read the IC50 as the concentration needed to halve the response being measured. Broadly, the melting point is the temperature, or range, at which the solid turns liquid. As for `CC(=O)c1cn(C)c2ccc(-c3ccc(-c4cncc(NS(=O)(=O)c5ccc(F)cc5F)c4)s3)cc12` [Compound 59, N-(5-(5-(3-Acetyl-1-methyl-1H-indol-5-yl)thiophen-2-yl)-pyridin-3-yl)-2,4-difluorobenzenesulfonamide], the melting point fell in the range of 241 to 244 °C. The compound also had an inhibition at 20 µM in data set [1] of 72%. In addition, the IC50 on recombinant perforin (read-out: Jurkat IC50; lysis of Jurkat T lymphoma cells by recombinant perforin, 0.1% BSA, 30 min pre-incubation, 4 hours at 37° C.) is 11.2 µM.
`Cc1ccc(NS(=O)(=O)c2ccccn2)cc1-c1ccc(-c2ccc3c(c2)CN(C)C3=O)s1` [Compound 60, N-(4-Methyl-3-(5-(2-methyl-1-oxoisoindolin-5-yl)thiophen-2-yl)phenyl)pyridine-2-sulfonamide] displayed a melting point of 274 to 277 °C. This compound also registered an inhibition at 20 µM in data set [1] of 17%. The IC50 on recombinant perforin (setting [3]) is 15.4 µM.
In turn, `CN1Cc2cc(-c3ccc(-c4ccc(OC(F)(F)F)c(NS(=O)(=O)c5ccccn5)c4)s3)ccc2C1=O` [Compound 63, N-(5-(5-(2-Methyl-1-oxoisoindolin-5-yl)thiophen-2-yl)-2-(trifluoromethoxy)phenyl)pyridine-2-sulfonamide] yielded a melting point of 200 to 201 °C. In addition, in data set [1], the “Inhibition of KHYG-1 at 20 μM (%)” value stood at 56.14 ± 9%. At recombinant perforin (setting [3]), the IC50 was more than 20 µM.
